{
  "source": "patent US20120330023A1",
  "about": "“Alkyl Pyridinium Dicyanamides and Method For The Production Thereof” (LONZA AG, priority 2004, published 2012)",
  "data": [
    {"assay": "water solubility / miscibility with water", "format": "physicochemical", "values": [
      {"smiles": "CCCC[n+]1cccc(C)c1.N#C[N-]C#N", "note": "[N-butyl-3-methylpyridinium dicyanamide, 3-Methyl-1-butylpyridinium dicyanamide]", "water solubility (miscibility with water)": "water-miscible"},
      {"smiles": "CCCC[n+]1ccccc1.N#C[N-]C#N", "note": "[N-butylpyridinium dicyanamide]", "water solubility (miscibility with water)": "water-miscible"},
      {"smiles": "CCCCCCCC[n+]1cccc(C)c1.N#C[N-]C#N", "note": "[N-octyl-3-methylpyridinium dicyanamide, 3-Methyl-1-octylpyridinium dicyanamide]", "water solubility (miscibility with water)": "water-immiscible"},
      {"smiles": "CCCCCCCC[n+]1ccccc1.N#C[N-]C#N", "note": "[N-octylpyridinium dicyanamide]", "water solubility (miscibility with water)": "water-immiscible"}
    ]}
  ]
}
